In patent publication US11388901B2, “Herbicidal azines” (BASF SE, priority 2017, dated 2022) one finds herbicidal activity data, which are given here for 36 compounds.

What all share (assay type): in vivo
For assay [1], the system named is Setaria faberi. Briefly: greenhouse pre-emergence herbicidal test. The note with it: scale 0 to 100. From the text: (§1) The culture containers used were plastic flowerpots containing loamy sand with approximately 3.0% of humus as the substrate. The seeds of the test plants were sown separately for each species.
(§2) For the pre-emergence treatment, the active ingredients, which had been suspended or emulsified in water, were applied directly after sowing by means of finely distributing nozzles.
(§3) The containers were irrigated gently to promote germination and growth and subsequently covered with transparent plastic hoods until the plants had rooted. This cover caused uniform germination of the test plants, unless this had been impaired by the active ingredients.
(§4) Depending on the species, the plants were kept at 10-25° C. or 20-35° C., respectively.
(§5) The test period extended over 2 to 4 weeks. During this time, the plants were tended, and their response to the individual treatments was evaluated.
(§6) Evaluation was carried out using a scale from 0 to 100. 100 means no emergence of the plants, or complete destruction of at least the aerial moieties, and 0 means no damage, or normal course of growth. A moderate herbicidal activity is given at values of at least 60, a good herbicidal activity is given at values of at least 70, and a very good herbicidal activity is given at values of at least 85.
(§7) The plants used in the greenhouse experiments were of the following species: […]

Assay [2] relates to Echinocloa crus-galli. The assay is described as follows: greenhouse pre-emergence herbicidal test. The note with it: 250 g/ha, scale 0 to 100.
Excerpt: as §1, §2, §3, §4, §5, §6, §7

Assay [3] has as its system Amaranthus retroflexus. Briefly: greenhouse pre-emergence herbicidal test. Conditions: scale 0 to 100. An excerpt:
The seeds of the test plants were sown separately for each species. For the pre-emergence treatment, the active ingredients, which had been suspended or emulsified in water, were applied directly after sowing by means of finely distributing nozzles. The containers were irrigated gently to promote germination and growth and subsequently covered with transparent plastic hoods until the plants had rooted. This cover caused uniform germination of the test plants, unless this had been impaired by the active ingredients. […] The test period extended over 2 to 4 weeks. During this time, the plants were tended, and their response to the individual treatments was evaluated. Evaluation was carried out using a scale from 0 to 100. 100 means no emergence of the plants, or complete destruction of at least the aerial moieties, and 0 means no damage, or normal course of growth. A moderate herbicidal activity is given at values of at least 60, a good herbicidal activity is given at values of at least 70, and a very good herbicidal activity is given at values of at least 85. The plants used in the greenhouse experiments were of the following species: […]

Assay [4] has as its system Alopercurus myosuroides. Briefly: greenhouse pre-emergence herbicidal test. Conditions: scale 0 to 100.
Excerpt: as §1, §2, §3, §4, §5, §6, §7

Assay [5] concerns Apera spica-venti. The assay is described as follows: greenhouse pre-emergence herbicidal test. The note with it: scale 0 to 100.
Excerpt: as §1, §2, §3, §4, §5, §6, §7

The subject of assay [6] is Lolium multiflorum. Briefly: greenhouse pre-emergence herbicidal test. Conditions: 250 g/ha, scale 0 to 100.
Excerpt: as §1, §2, §3, §4, §5, §6, §7

For assay [7], the system named is Abutilon theophrasti. Briefly: greenhouse pre-emergence herbicidal test. Conditions: 250 g/ha, scale 0 to 100.
Excerpt: as §1, §2, §3, §4, §5, §6, §7

Assay [8] concerns Amaranthus retroflexus. Briefly: greenhouse post-emergence herbicidal test. Conditions: 250 g/ha, scale 0 to 100.
Excerpt: as §1
(§8) For the post-emergence treatment, the test plants were first grown to a height of 3 to 15 cm, depending on the plant habit, and only then treated with the active ingredients which had been suspended or emulsified in water. For this purpose, the test plants were either sown directly and grown in the same containers, or they were first grown separately as seedlings and transplanted into the test containers a few days prior to treatment.
as §4, §5, §6, §7

Assay [9] concerns Abutilon theophrasti. Briefly: greenhouse post-emergence herbicidal test. Conditions: 250 g/ha, scale 0 to 100.
Excerpt: as §1, §8, §4, §5, §6, §7

For `CC(F)c1nc(N)nc(Nc2c(F)ncc(F)c2Cl)n1` (racemic) [Example 8], the herbicidal activity in [1] (250 g/ha) is given as 100%; in assay [2], 90%; in assay [3] (250 g/ha), 100%.

On to `CCCC(F)c1nc(N)nc(Nc2c(F)ncc(F)c2Cl)n1` (racemic) [Example 13], for which the herbicidal activity in assay [1] (250 g/ha), in assay [2] and in [3] (250 g/ha) was 100% each time.

Consider `Nc1nc(Nc2c(F)ncc(F)c2Cl)nc(C(F)C2CCCC2)n1` (racemic) [Example 20], for which the herbicidal activity in [4] (250 g/ha), in [1] (250 g/ha) and in assay [3] (250 g/ha) was 100% throughout.

In the case of `CC(C)(C)c1nc(N)nc(Nc2c(F)ncc(F)c2Cl)n1` [Example 2, 6-tert-butyl-N4-(4-chloro-2,5-difluoro-3-pyridyl)-1,3,5-triazine-2,4-diamine], the values for the herbicidal activity in assay [5] (125 g/ha) and in assay [3] (125 g/ha) were 90% and 100%, respectively.

As for `CC(C)(F)c1nc(N)nc(Nc2c(F)ncc(F)c2Cl)n1` [Example 4], the herbicidal activity in assay [4] (250 g/ha), in assay [2] and in assay [3] (250 g/ha) was 100% throughout.

For `Nc1nc(Nc2c(F)ncc(F)c2Cl)nc(C2CCCC2)n1` [Example 6], the herbicidal activity is 80% in [4] (250 g/ha) and 90% in assay [3] (250 g/ha).

As for `CC(C)(C)c1nc(N)nc(Nc2c(F)ncc(F)c2Cl)n1` [Example 7, 6-tert-butyl-N4-(4-chloro-2,5-difluoro-3-pyridyl)-1,3,5-triazine-2,4-diamine], the herbicidal activity was found to be 98% in [4] (250 g/ha), 95% in [1] (250 g/ha) and 90% in [3] (250 g/ha).

Consider `CC1(c2nc(N)nc(Nc3c(F)ncc(F)c3Cl)n2)CCC1` [Example 9], for which the herbicidal activity in [4] (250 g/ha), in [2] and in assay [3] (250 g/ha) was 100% in each case.

With `COC1(c2nc(N)nc(Nc3c(F)ncc(F)c3Cl)n2)CCCC1` [Example 10], the herbicidal activity is listed as 95% in assay [6], 100% in assay [4] (250 g/ha) and 100% in [3] (250 g/ha).

In the case of `Nc1nc(Nc2c(F)ncc(F)c2Cl)nc(C2(F)CCCCC2)n1` [Example 11], the herbicidal activity in assay [4] (250 g/ha), in assay [1] (250 g/ha) and in assay [3] (250 g/ha) was 100% throughout.

In the case of `Nc1nc(Nc2c(F)ncc(F)c2Cl)nc(C2(F)CCCC2)n1` [Example 12], the herbicidal activity in assay [1] (250 g/ha) is on record as 100%; in assay [2] it was 98%; in assay [3] (250 g/ha) it was 100%.

In the case of `CC1(c2nc(N)nc(Nc3c(F)ncc(F)c3Cl)n2)CCCC1` [Example 14], in [3] (250 g/ha), the herbicidal activity stood at 85%.

Turning to `Nc1nc(Nc2c(F)ncc(F)c2Cl)nc(C2(F)CC=CC2)n1` [Example 19], the herbicidal activity in assay [1] (250 g/ha), in assay [2] and in assay [3] (250 g/ha) was 100% in each case.

For the compound `Nc1nc(Nc2c(F)ncc(F)c2Cl)nc(C2(Cl)CCCC2)n1` [Example 21], the herbicidal activity in assay [1] (250 g/ha) is reported as 95%; in assay [3] (250 g/ha), 100%.

Turning to `CC1CCC(c2nc(N)nc(Nc3c(F)ncc(F)c3Cl)n2)CC1` (centres unmarked) [Example 23], in assay [3] (250 g/ha), the herbicidal activity stood at 95%.

In turn, `CC(C)(C#N)c1nc(N)nc(Nc2c(F)ncc(F)c2Cl)n1` [Example 28] gave a herbicidal activity in [3] (250 g/ha) of 100%.

As for `Nc1nc(Nc2c(F)ncc(F)c2Cl)nc(C2(F)CC2)n1` [Example 31], the herbicidal activity in assay [4] (250 g/ha), in assay [2] and in [3] (250 g/ha) was 100% each time.

With `Cc1nc(F)c(Nc2nc(N)nc(C(C)(C)F)n2)c(Cl)c1F` [Example 32, N4-(4-Chloro-2,5-difluoro-6-methyl-3-pyridyl)-6-(1-fluoro-1-methyl-ethyl)-1,3,5-triazine-2,4-diamine], the herbicidal activity in [4] (250 g/ha) was found to be 90%; in assay [2], 85%; in assay [3] (250 g/ha), 100%.

Regarding `CC1(c2nc(N)nc(Nc3c(F)ncc(F)c3Cl)n2)CC1` [Example 33], the herbicidal activity in assay [3] (250 g/ha) is recorded as 98%.

Take `CC(C)(F)c1nc(N)nc(Nc2c(F)ncc(F)c2Br)n1` [Example 35]: the herbicidal activity in assay [4] (250 g/ha), in assay [2] and in assay [3] (250 g/ha) was 100% in each case.

On to `CC(C)(Cl)c1nc(N)nc(Nc2c(F)ncc(F)c2Cl)n1` [Example 36], for which the herbicidal activity in assay [4] (250 g/ha), in assay [1] (250 g/ha) and in assay [3] (250 g/ha) was 100% throughout.

For the compound `CCCC(F)(F)c1nc(N)nc(Nc2c(F)ncc(F)c2Cl)n1` [Example 37], the herbicidal activity in [4] (250 g/ha), in [1] (250 g/ha) and in [3] (250 g/ha) was 100% throughout.

In the case of `CC(C)CC(F)(F)c1nc(N)nc(Nc2c(F)ncc(F)c2Cl)n1` [Example 38], the herbicidal activity in assay [1] (250 g/ha) was 90%; in assay [3] (250 g/ha), 100%.

With `CC(C)(CO)c1nc(N)nc(Nc2c(F)ncc(F)c2Cl)n1` [Example 40], the herbicidal activity was 90% in assay [4] (250 g/ha), 95% in assay [1] (250 g/ha) and 100% in assay [3] (250 g/ha).

As for `CC(C)(F)c1nc(N)nc(Nc2c(F)ncc(F)c2I)n1` [Example 41], the herbicidal activity in assay [4] (250 g/ha) came out at 98%; in assay [1] (250 g/ha) it was 100%; in assay [3] (250 g/ha), 100%.

For `Nc1nc(Nc2c(F)ncc(F)c2Br)nc(C2(F)CCCC2)n1` [Example 43], the herbicidal activity in assay [4] (250 g/ha), in assay [1] (250 g/ha) and in [3] (250 g/ha) was 100% throughout.

Regarding `CCCc1nc(F)c(Nc2nc(N)nc(C(C)(C)F)n2)c(Cl)c1F` [Example 44], in [3] (250 g/ha), the herbicidal activity came to 100%.

Turning to `CCCC(F)c1nc(N)nc(Nc2c(F)ncc(F)c2Br)n1` (centres unmarked) [Example 46], the values for the herbicidal activity in [4] (250 g/ha), in assay [1] (250 g/ha) and in assay [3] (250 g/ha) were 98%, 100% and 100%, respectively.

`Nc1nc(Nc2c(Cl)ccnc2Cl)nc(C2(F)CCCC2)n1` [Example 47]: the herbicidal activity in assay [6], in [1] (250 g/ha) and in assay [3] (250 g/ha) was 100% throughout.

In the case of `C#CC(C)(F)c1nc(N)nc(Nc2c(F)ncc(F)c2Cl)n1` (centres unmarked) [Example 48], the figures for the herbicidal activity in assay [1] (250 g/ha), in [2] and in assay [3] (250 g/ha) were 100%, 98% and 100%, respectively.

As for `Nc1nc(Nc2c(F)ncc(F)c2Br)nc(C2(F)CCCCC2)n1` [Example 51], the herbicidal activity in [4] (250 g/ha), in [1] (250 g/ha) and in assay [3] (250 g/ha) was 100% in each case.

Consider `CCC(F)(CC)c1nc(N)nc(Nc2c(F)ncc(F)c2Br)n1` [Example 52], for which the herbicidal activity in assay [1] (250 g/ha), in assay [2] and in assay [3] (250 g/ha) was 100% in each case.

Consider `Cc1ccnc(Cl)c1Nc1nc(N)nc(C(C)(C)F)n1` [Example 53], for which the herbicidal activity in assay [1] (250 g/ha) came out at 95%; in assay [7], 100%; in [8], 98%; in assay [9] it was 80%; in [3] (250 g/ha) it was 100%.

Take `N#Cc1ccnc(Cl)c1Nc1nc(N)nc(C2(F)CCCC2)n1` [Example 60]: the herbicidal activity in assay [5] (250 g/ha) turned out to be 95%; in assay [2], 85%; in [8] it was 80%; in [9] it was 95%; in assay [3] (250 g/ha), 98%.

For `Nc1nc(Nc2c(F)ncc(F)c2Br)nc(C(F)C2CCCC2)n1` (centres unmarked) [Example 61], the herbicidal activity amounted to 90% in assay [4] (250 g/ha), 100% in assay [1] (250 g/ha) and 100% in [3] (250 g/ha).

Regarding `Nc1nc(Nc2c(F)nc(F)c(F)c2Cl)nc(C2(F)CCCC2)n1` [Example 69], the herbicidal activity in assay [4] (125 g/ha), in assay [1] (125 g/ha) and in [3] (125 g/ha) was 100% throughout.
